Measurements published in US20230248797A1, “Method for preparing medicine with Chinese yam protein extract for treating erectile dysfunction” (priority 2020, published 2023).

Tests used:
[1] = system: ERK and AKT signal pathways in TM3 cells; assay: Western blot of p-ERK/ERK and p-AKT/AKT in TM3 cells; assay type: cell-based, mouse; conditions: H2O2 damaged TM3 cells
Method: TM3 cells: purchased from Shanghai Cell Bank of the Chinese Academy of Sciences. The culture conditions are DMEM/F12+5% horse serum+2.5% fetal bovine serum+1% penicillin-streptomycin, 37° C., 5% CO2 incubator. TM3 cells were placed in a 96-well plate at a density of 3×10^4 cells/mL and divided into 6 groups: control group, H2O2 group, CYCSE group, ERK inhibitor ([…] group, AKT inhibitor ([…] group, and sildenafil group. After the two inhibitors were pretreated for 1 […] was added and processed for 24 h, and 0.4 mM H2O2 was added and processed for 2 h. The TM3 cells or the MCECs were placed in 6-well plates, and the CYCSE was added to process for 24 h and 0.4 mM H2O2 to process for 2 h. The cells were collected and washed twice with PBS, wherein supernatant was discarded. The testicular tissue in liquid nitrogen was ground into powder. 200 μL of RIPM lysis solution (containing 1% PMSF) was added to each of the above samples to lyse on ice for 30 min and centrifuge at 12000 r for 10 min at 4° C., wherein supernatant was stored at -20° C. for later use. A BCA protein content detection kit was used to determine protein content in the samples and to adjust protein concentration to the same level. An equal volume of 2× loading buffer was added to an appropriate amount of the extracted protein sample, which was mixed well, boiled for 10 min, and stored at -20° C. […]

TM3 cells = assay: CCK8 cell viability of H2O2 damaged TM3 cells; assay type: cell-based, mouse; conditions: inhibitor pretreated 1 h, then 62.5 μg/mL CYCSE 24 h, 0.4 mM H2O2 2 h
Method: TM3 cells: purchased from Shanghai Cell Bank of the Chinese Academy of Sciences. The culture conditions are DMEM/F12+5% horse serum+2.5% fetal bovine serum+1% penicillin-streptomycin, 37° C., 5% CO2 incubator. TM3 cells were placed in a 96-well plate at a density of 3×10^4 cells/mL and divided into 6 groups: control group, H2O2 group, CYCSE group, ERK inhibitor ([…] group, AKT inhibitor ([…] group, and sildenafil group. After the two inhibitors were pretreated for 1 […] was added and processed for 24 h, and 0.4 mM H2O2 was added and processed for 2 h. After the two kinds of cells were treated separately, CCK8 was added and incubated at 37° C. for 1 h. A microplate reader was used to measure absorbance at 450 nm and calculate the cell viability.

NO/cGMP signal pathway = assay: ELISA of iNOS and cGMP in kidney-yang deficiency rats; assay type: in vivo, SD rats; conditions: CYCSE 60, 80 mg/kg; sildenafil 4.4 mg/kg; vs model group
Method: SD rats were randomly divided into 5 groups with 10 rats in each group. The SD rats were fed with 25 mg/kg hydrocortisone (HCT) for 10 days to construct a kidney-yang deficiency model, and then gave different concentrations of the CYCSE for 10 days. Specific groups were as follows: control group (distilled water 20 d); kidney-yang deficiency group (HCT 10 d+distilled water 10 […] low-concentration group (HCT 10 d+60 mg/kg […] high-concentration group (HCT 10 d+80 mg/kg […]); sildenafil group (HCT 10 d+4.4 mg/kg sildenafil 10 d). After treatment, the rats were anesthetized by intraperitoneal injection of 3% sodium pentobarbital. After the animal was anesthetized, blood was taken from the celiac artery and spontaneously coagulated for 25 min, and centrifuged at 2500 rpm/min for 10 min at 4° C. Supernatant was collected, namely serum samples. Contents of inducible nitric oxide synthase (iNOS), cyclic guanosine phosphate (cGMP) and testosterone in serum were detected according to instructions of rat ELISA test kit (BPRO, Shanghai, China).

[2] = system: testis tissue of kidney-yang deficiency rats; assay: Testicular tissue morphology (HE staining) in kidney-yang deficiency rats; assay type: in vivo, SD rats; conditions: HCT 10 d + 4.4 mg/kg sildenafil 10 d
Method: (§1) SD rats were randomly divided into 5 groups with 10 rats in each group. The SD rats were fed with 25 mg/kg hydrocortisone (HCT) for 10 days to construct a kidney-yang deficiency model, and then gave different concentrations of the CYCSE for 10 days. Specific groups were as follows: control group (distilled water 20 d); kidney-yang deficiency group (HCT 10 d+distilled water 10 d); CYCSE low-concentration group (HCT 10 d+60 mg/kg CYCSE 10 d); CYCSE high-concentration group (HCT 10 d+80 mg/kg CYCSE 10 d); sildenafil group (HCT 10 d+4.4 mg/kg sildenafil 10 d). After treatment, the rats were anesthetized by intraperitoneal injection of 3% sodium pentobarbital.
(§2) Cavernosum tissue and testicular tissue were fixed in 4% paraformaldehyde, and then embedded in paraffin and sectioned. Testicular tissue sections were stained with hematoxylin-eosin method and Masson method respectively. Cavernosum tissue sections were stained with hematoxylin-eosin method. The testicular tissue sections were processed by immunohistochemistry, and testicular leydig cells were labeled with 3β-HSD antibody. A Nikon posture microscope was used to take photos.

testicular leydig cells = assay: Immunohistochemistry of testicular leydig cells (3β-HSD); assay type: in vivo, SD rats; set-up: key: negative (−); weakly positive (+); ranging from negative (−) to weakly positive (+) to strong positive (+++); strong positive (+++); conditions: HCT 10 d + 4.4 mg/kg sildenafil 10 d
Method: as §1, §2

[3] = system: sperm of kidney-yang deficiency rats; assay: Sperm count and vitality check; assay type: in vivo, SD rats; conditions: HCT 10 d + 4.4 mg/kg sildenafil 10 d
Method: SD rats were randomly divided into 5 groups with 10 rats in each group. The SD rats were fed with 25 mg/kg hydrocortisone (HCT) for 10 days to construct a kidney-yang deficiency model, and then gave different concentrations of the CYCSE for 10 days. Specific groups were as follows: control group (distilled water 20 d); kidney-yang deficiency group (HCT 10 d+distilled water 10 […] low-concentration group (HCT 10 d+60 mg/kg […] high-concentration group (HCT 10 d+80 mg/kg […]); sildenafil group (HCT 10 d+4.4 mg/kg sildenafil 10 d). After treatment, the rats were anesthetized by intraperitoneal injection of 3% sodium pentobarbital. At the end of administration, epididymis samples were collected, excess tissue was removed, and blood was washed away with saline. The samples were fixed with tweezers, so as to cut a tail side of the epididymis longitudinally. The sperm was released in a petri dish containing PBS, and a hemocytometer was used to detect number and viability of the sperm under a microscope after waiting at room temperature for 10 minutes (sperm viability is divided into 4 levels: a) move forward rapidly in a straight line, b) move forward slowly in a straight line, c) move locally, d) no move).

[4] = system: primary cavernous endothelial cells (MCECs); assay: CCK8 cell viability of H2O2 damaged MCECs; assay type: cell-based, C57BL/6 mice; conditions: CYCSE 31.3 and 62.5 μg/mL or sildenafil 24 h, then 0.4 mM H2O2 2 h; dose-dependent
Source text: Eight-week-old C57BL/6J mice were sacrificed by cutting necks. Lower abdomen was sterilized with alcohol cotton balls, a lower abdomen incision was made with tweezers and surgical scissors, and the abdominal fascia and foreskin glands were peeled off to expose cavernosum tissue. The cavernosum tissue was separated with surgical scissors and placed in Hank's balanced salt solution containing 10% penicillin-streptomycin, and urethra and neurovascular bundles were removed under microscope to obtain clean cavernosum tissue. The obtain tissue was washed 3 times in PSB containing 10% penicillin-streptomycin, cut into small pieces of 1-2 mm^3 with surgical scissors, and placed at bottoms of a pre-cooled 24-well plate with 2 pieces in each well. Each well was supplemented with 200 μL Matrigel containing 50 ng/mL VEGF-A. The MCECs were cultured in a simulated 3D environment to induce proliferation. Then the MCECs were incubate in a 37° C., 5% CO2 incubator for 14 days until the bottoms of the wells were full. After aspirating the medium, 200 μL Dispase was added to each well for digestion in the incubator for 1 h, and an equal volume of 10 mM EDTA was added to stop the digestion. […] A microplate reader was used to measure absorbance at 450 nm and calculate the cell viability.

[5] = system: kidney-yang deficiency rats; assay: Body weight, organ weight and routine indicators in hydrocortisone-induced kidney-yang deficiency rat model; assay type: in vivo, SD rats; conditions: HCT 10 d + 4.4 mg/kg sildenafil 10 d
Method: as §1, with “d); CYCSE” left out, “CYCSE 10 d); CYCSE” left out, “[…]);” for “CYCSE 10 d);”

[6] = system: mice with oligoasthenospermia induced by tripterygium glycosides; conditions: cited from earlier work

Structure (SMILES): COc1cccc(-c2cc(=O)c3ccccc3o2)c1N [PD98059]
- CYCSE-induced increase of p-ERK/ERK and p-AKT/AKT in TM3 cells with inhibitor [1]: significantly down-regulated
- Effect of inhibitor on the protective effect of CYCSE on TM3 cell viability (TM3 cells): significantly block the protective effect

Structure (SMILES): CCCc1nn(C)c2c(=O)[nH]c(-c3cc(S(=O)(=O)N4CCN(C)CC4)ccc3OCC)nc12 [Sildenafil]
- cGMP content (NO/cGMP signal pathway): no significant difference between the sildenafil group and the high concentration group
- iNOS content (NO/cGMP signal pathway): no significant difference between the sildenafil group and the high concentration group
- Diameter of seminiferous tubules [2]: 357.61 ± 8.03 μm
- Germinal cell layer thickness [2]: 72.50 ± 5.47 μm
- Immunoexpression of 3β-HSD (testicular leydig cells) (testicular leydig cells): +
- Sperm number [3]: 4.63 ± 0.56^Δ *10^6/mL
- Sperm motility a ([3]; grade a): 17.67 ± 2.05^Δ %
- Sperm motility a + b ([3]; grades a + b): 37.67 ± 2.05^ΔΔ %
- Cell viability of oxidation-damaged MCECs [4]: no salvage effect
- Body weight [5]: 329.37 ± 10.82 g
- Epididymal weight [5]: 0.85 ± 0.01 g
- Testicular weight [5]: 3.03 ± 0.06 g

Structure (SMILES): C[C@@H]1CC[C@@]2(OC1)O[C@H]1C[C@H]3[C@@H]4CC=C5C[C@@H](O)CC[C@]5(C)[C@H]4CC[C@]3(C)[C@H]1[C@@H]2C [diosgenin]
- Erectile latency [6]: shorten
- MDA content in testicular tissues [6]: reduce
- Organ coefficient of reproductive organs and immune organs [6]: improve
- SOD activity in testicular tissues [6]: increase
- Sperm quality [6]: improve
